According to patent US4692517A, “C-3' acylaminooxy-7-[(2-aminothiazol-4-yl)-α-(substituted-oximino)acety l]cephalosporin derivatives” (American Home Products Corporation, priority 1986, dated 1987):
≈ marks a conversion by molar mass, not a printed value.

Tests used:
Type in all cases: cell-based
[1] = system: Staphylococcus aureus ATCC 29213; experiment: Agar dilution MIC, Staphylococcus aureus ATCC 29213; conditions: ATCC29213, 18 hours at 35° C., read-out: Minimal Inhibitory Concentration (MIC)
Method: (§1) The compounds of the invention are tested for their antibacterial activity. The test is carried out as follows:
(§2) The organisms used in the test comprise the following:
(§3) Staphylococcus aureus (penicillin-sensitive and resistant), Pseudomonas aeruginosa, Escherichia coli, […] pneumoniae, Bordetella bronchiseptica, Proteus vulgaris, P. mirabilis, Acinetobacter calcoaceticus.
(§4) Test organisms may be added or deleted in order to reflect current clinical patterns of antibiotic susceptibility or shifts in pathogenic potential.
(§5) Organisms are normally grown for 18 hours in Brain Heart Infusion at 35° C. Cultures are adjusted with saline to MacFarland No. 1.5 standard prior to use.
(§6) Stock concentrations (e.g. 2,500 μg or units per ml) are prepared in a suitable vehicle. Two-fold dilutions are made. One ml quantities of each dilution are incorporated in 9 ml of the appropriate agar (e.g. Seed) in sterile Petri plates. The hardened surface is inoculated with test organisms by use of a Steers replicating device. The plates are incubated (e.g. 18 hours at 35° C.) and activity is determined.

[2] = system: Streptococcus faecalis ATCC 29212; experiment: Agar dilution MIC, Streptococcus faecalis ATCC 29212; conditions: Enterococcus faecalis, ATCC29212, 18 hours at 35° C., read-out: Minimal Inhibitory Concentration (MIC)
Method: as §1, §2, §3, §4, §5, §6

[3] = system: Enterobacter cloacae ATCC 13047; experiment: Agar dilution MIC, Enterobacter cloacae ATCC 13047; conditions: ATCC13047, 18 hours at 35° C., read-out: Minimal Inhibitory Concentration (MIC)
Method: as §1, §2, §3, §4, §5, §6

[4] = system: Escherichia coli ATCC 25922; experiment: Agar dilution MIC, Escherichia coli ATCC 25922; conditions: ATCC25922, 18 hours at 35° C., read-out: Minimal Inhibitory Concentration (MIC)
Method: as §1, §2, §3, §4, §5, §6

[5] = system: Klebsiella pneunomiae KL-1; experiment: Agar dilution MIC, Klebsiella pneunomiae KL-1; conditions: KL1, 18 hours at 35° C., read-out: Minimal Inhibitory Concentration (MIC)
Method: as §1, §2, §3, §4, §5, §6

[6] = system: Proteus vulgaris A 84354 1; experiment: Agar dilution MIC, Proteus vulgaris A 84354 1; conditions: A843541, 18 hours at 35° C., read-out: Minimal Inhibitory Concentration (MIC)
Method: as §1, §2, §3, §4, §5, §6

[7] = system: Pseudomonas aeruginosa ATCC 27853; experiment: Agar dilution MIC, Pseudomonas aeruginosa ATCC 27853; conditions: ATCC27853, 18 hours at 35° C., read-out: Minimal Inhibitory Concentration (MIC)
Method: as §1, §2, §3, §4, §5, §6

[8] = system: Serratia marcescens ATCC 13880; experiment: Agar dilution MIC, Serratia marcescens ATCC 13880; conditions: ATCC13880, 18 hours at 35° C., read-out: Minimal Inhibitory Concentration (MIC)
Method: as §1, §2, §3, §4, §5, §6

CO/N=C(\C(=O)N[C@@H]1C(=O)N2C(C(=O)OC(C)(C)C)=C(CONC(=O)OC(C)(C)C)CS[C@H]12)c1csc(N)n1 [Example 1B, (6R,7R)-7-[[(Z)-(2-amino-4-thiazolyl)(methoxyimino)acetyl]amino]-3-[[[[(1,1-dimethylethoxy)carbonyl]amino]oxy]methyl]-8-oxo-5-thia-1-azabicyclo[4.2.0]oct-2-ene-2-carboxylic acid 1,1-dimethylethyl ester]
MIC [1]: 64 µg/mL (≈ 109 µM) | MIC [2]: 128 µg/mL (≈ 219 µM) | MIC [3]: 32 µg/mL (≈ 54.7 µM) | MIC [4]: 4 µg/mL (≈ 6.84 µM) | MIC [5]: 1 µg/mL (≈ 1.71 µM) | MIC [6]: 1 µg/mL (≈ 1.71 µM) | MIC [7]: 128 µg/mL (≈ 219 µM) | MIC [8]: 16 µg/mL (≈ 27.4 µM)
